Laboratory results reported in US8304447B2, “2-acylaminopropoanol-type glucosylceramide synthase inhibitors” (Genzyme Corporation, priority 2007, dated 2012).

Test system: GM3
Assay: GM3 Elisa assay
Type: cell-based
Settings: 48 h, Table 1; B16-FO cells, 2 days incubation; read-out: IC50_uM_Mean
Procedure: B16-FO cells from ATCC (American Tissue Culture Collection) were grown in DMEM media (ATCC) with 10% Fetal Bovine Serum (Hyclone) and Pen/Step/Glutamine (Biowhittaker). 4000 cells per well were plated on collagen coated plates (BD) and allowed to attach for 6 hours in an incubator (37 degrees, 5% CO2). After 6 hours the compounds and controls were added to the wells, the plates mixed and returned to the incubator for 2 days. Day of assay the cells were fixed for 20 minutes with 1% formaldehyde and then washed with Tris Buffered Saline (TBS) 3 times, 150 μl of TBS was left in the wells and 50 μl of goat serum (Invitrogen) was added, the plates mixed and incubated for 1 hour at room temperature. The plates were flicked and the cells incubated with the monoclonal Antibody to GM3 (NeuAc) (Cosmo) for 45 minutes as room temperature. The plates were then washed 3 times with TBS, leaving 150 μl of TBS in the wells and Peroxidase AffinPure F (ab′) 2 frag Gt Anti-mouse IgM, μ Chain Specific (Jackson Immuno Research) was added in 50 μl, the plates mixed and incubated for 45 minutes at room temperature. The plates were washed 3 times with TBS, flicked and blotted and 100 μl of Quantablu (Pierce) was added to the wells and incubated for 1 hour then read on a Fluorometer at Ex 325 and Em 420. The data was then analyzed using standard programs.

Structure (SMILES) | IC50
O=C(Nc1ccc2ccccc2c1)N[C@H](CN1CCCC1)[C@H](O)c1ccc2c(c1)OCCO2 [Compound 69, 1-((1R,2R)-1-(2,3-dihydrobenzo[β][1,4]dioxin-6-yl)-1-hydroxy-3-(pyrrolidin-1-yl)propan-2-yl)-3-(naphthalen-2-yl)urea] | 100 to 1000 nM
CC(C)Oc1ccc(C(=O)CCC(=O)N[C@H](CN2CCCC2)[C@@H](O)c2ccc3c(c2)OCCO3)cc1 [Compound 162, N-((1R,2R)-1-(2,3-dihydrobenzo[β][1,4]dioxin-6-yl)-1-hydroxy-3-(pyrrolidin-1-yl)propan-2-yl)-4-(4-isopropoxyphenyl)-4-oxobutanamide] | ≤ 100 nM
CC(C)CC(=O)c1ccc(OCCC(=O)N[C@H](CN2CCCC2)[C@H](O)c2ccc3c(c2)OCCO3)cc1 [Compound 187, N-((1R,2R)-1-(2,3-dihydrobenzo[β][1,4]dioxin-6-yl)-1-hydroxy-3-(pyrrolidin-1-yl)propan-2-yl)-3-(4-(3-methylbutanoyl)phenoxy)propanamide (2S,3S)-2,3-dihydroxysuccinate] | 100 to 1000 nM
COc1ccc(CNC(=O)N[C@H](CN2CCCC2)[C@H](O)c2ccc3c(c2)OCCO3)cc1 [Compound 41, 1-((1R,2R)-1-(2,3-dihydrobenzo[β][1,4]dioxin-6-yl)-1-hydroxy-3-(pyrrolidin-1-yl)propan-2-yl)-3-(4-methoxybenzyl)urea] | ≤ 100 nM

Same assay, conditions: 48 h, Table 2; B16-FO cells, 2 days incubation; read-out: IC50_uM_Mean

Structure (SMILES) | IC50
COc1ccc([C@@H](O)[C@@H](CN2CCCC2)NC(=O)Nc2ccc(OC(F)(F)F)cc2)cc1 [Compound 249] | 1000 to 3000 nM
CCCCCCCC(=O)N[C@H](CN1CCC(CN2CCCC2)C1)[C@H](O)c1ccc2c(c1)OCCO2 (stereo partly drawn) [Compound 313] | ≤ 100 nM
O=C(CCCc1nc(-c2cccs2)no1)N[C@H](CN1CCCC1)[C@H](OC(=O)CCCc1nc(-c2cccs2)no1)c1ccc2c(c1)OCCO2 [Compound 254] | 100 to 1000 nM
COc1ccc(OCCC(=O)N[C@H](CN2CCOCC2)[C@H](O)c2ccc3c(c2)OCCO3)cc1 [Compound 257, N-((1R,2R)-1-(2,3-dihydrobenzo[β][1,4]dioxin-6-yl)-1-hydroxy-3-morpholinopropan-2-yl)-3-(4-methoxyphenoxy)propanamide] | 3000 to 10000 nM
CC(=O)O[C@H](c1ccc2c(c1)OCCO2)[C@@H](CN1CCCC1)NC(=O)NCc1ccccc1 [Compound 243] | ≤ 100 nM

Same assay, conditions: Table 3 (IC 50 Values); B16-FO cells; read-out: IC50_uM_Mean

Structure (SMILES) | IC50
CCCCCCCC(=O)N[C@H](Cc1ncc[nH]1)[C@H](O)c1ccc2c(c1)OCCO2 [Compound 563] | 3000 to 10000 nM
COc1ccc(C(=O)CCCCC(=O)N[C@H](CN2CCCC2)[C@H](O)c2ccc(OCCCCF)cc2)cc1 [Compound 435] | ≤ 100 nM
COCCOc1ccc(C(=O)CCCCC(=O)N[C@H](CN2CCCC2)[C@H](O)c2ccc(OC(C)C)cc2)cc1 [Compound 453] | ≤ 100 nM
O=C(CCCCCOCC(F)(F)F)N[C@H](CN1CCCC1)[C@H](O)c1ccc2c(c1)OCCO2 [Compound 620] | 100 to 1000 nM
O=C(CCCCCCOCC(F)(F)F)N[C@H](CN1CCCC1)[C@H](O)c1ccc2c(c1)OCCO2 [Compound 634] | 100 to 1000 nM
CCCCCCCC(=O)N[C@H](CN1CCCC1)[C@H](O)c1ccc(OC)c(C)c1 [Compound 388] | ≤ 100 nM
COc1ccc(C(=O)CCCC(=O)N[C@H](CN2CCCC2)[C@H](O)c2ccc(Cl)cc2)cc1 [Compound 383] | 100 to 1000 nM
COc1ccc(C(=O)CCCCCC(=O)N[C@H](CN2CC(F)(F)C2)[C@H](O)c2ccc3c(c2)OCCO3)cc1 [Compound 618] | 3000 to 10000 nM
CCCCCCCC(=O)N[C@H](CCN1CCOCC1)[C@H](O)c1ccc2c(c1)OCCO2 [Compound 686] | 3000 to 10000 nM
O=C(CCCn1cccn1)N[C@H](CN1CCCC1)[C@H](O)c1ccc2c(c1)OCCO2 [Compound 643] | 1000 to 3000 nM
COc1ccc(C(=O)CCCC(=O)N[C@H](CN2CC[C@@H](F)C2)[C@H](O)c2ccc(OCCCCF)cc2)cc1 [Compound 736] | ≤ 100 nM
COc1ccc(C(=O)CCCCCC(=O)N[C@H](CN2CCCC(C)C2)[C@H](O)c2ccc3c(c2)OCCO3)cc1 (stereo partly drawn) [Compound 609] | 100 to 1000 nM
COc1ccc(C(=O)CCCCC(=O)N[C@H](CN2CCCC2)[C@H](O)c2ccc(Cl)cc2)cc1 [Compound 384] | 100 to 1000 nM
O=C(CCCC(=O)c1ccc(F)cc1)N[C@H](CN1CCCC1)[C@H](O)c1ccc2c(c1)OCCO2 [Compound 639] | 100 to 1000 nM
CCCCCCC1=CC([C@H](CN2CCCC2)[C@H](O)c2ccc3c(c2)OCCO3)NN1 (stereo partly drawn) [Compound 591] | 3000 to 10000 nM
COc1ccc(C(=O)CCCCCC(=O)N[C@@H](Cc2ccccc2)CN2CCCC2)cc1 [Compound 541] | 3000 to 10000 nM
CCCOC1CN(C[C@@H](NC(=O)CCCCCC(=O)c2ccc(OC)cc2)[C@H](O)c2ccc3c(c2)OCCO3)C1 [Compound 604] | 3000 to 10000 nM
COc1ccc(C(=O)CCCCC(=O)N[C@H](CN2CCCC2)[C@H](O)c2ccc(OCCOc3ccccc3)cc2)cc1 [Compound 418] | ≤ 100 nM
O=C(Cc1ccc(OC(F)(F)F)cc1)N[C@H](CN1CCCC1)[C@H](O)c1ccc2c(c1)OC(F)(F)O2 [Compound 410] | 3000 to 10000 nM
COc1ccc(C(=O)CCCCCC(=O)N[C@H](CN2CCCC2)[C@H](O)c2ccccc2OC)cc1 [Compound 699] | ≤ 100 nM
COc1ccc(C(=O)CCCC(=O)N[C@H](CN2CCCC2)[C@H](O)c2ccc(OC)c(F)c2)cc1 [Compound 343] | 100 to 1000 nM
COc1ccc(OCCC(=O)N[C@H](CN2CC[C@H](O)C2)[C@H](O)c2ccc3c(c2)OCCO3)cc1 [Compound 514] | 100 to 1000 nM
COc1ccc(OCCC(=O)N[C@H](CN2CCCC2)[C@H](O)c2ccc(C)c(F)c2)cc1 [Compound 349] | 100 to 1000 nM
COc1ccc(C(=O)CCCCCC(=O)N[C@H](CNC2CCCC2)[C@H](O)c2ccc3c(c2)OCCO3)cc1 [Compound 463] | 100 to 1000 nM

Structure (SMILES) | IC50
CCCCCCCC(=O)N[C@H](Cn1ccnc1)[C@H](O)c1ccc2c(c1)OCCO2 [Compound 507] | 100 to 1000 nM
O=C(CCCCCC(=O)C1CC1)N[C@H](CN1CCCC1)[C@H](O)c1ccc2c(c1)OCCO2 [Compound 619] | 1000 to 3000 nM
N#CCCCCCC(=O)N[C@H](CN1CCCC1)[C@H](O)c1ccc2c(c1)OCCO2 [Compound 632] | 3000 to 10000 nM
COc1ccc(OCCC(=O)N[C@H](CN2CCCC2)[C@H](O)c2ccc(Cl)s2)cc1 [Compound 493] | 1000 to 3000 nM
COc1ccc(C(=O)CCCC(=O)N[C@H](CN2CC[C@@H](F)C2)[C@H](O)c2ccc(OC(C)C)cc2)cc1 [Compound 444] | 100 to 1000 nM
O=C(N[C@H](CN1CCCC1)[C@H](O)c1ccc2c(c1)OCCO2)C1(C(F)(F)F)CCC1 [Compound 614] | 3000 to 10000 nM
COc1ccc(OCCC(=O)N[C@H](CN2CCCC2)[C@H](O)c2ccc(C(F)(F)F)cc2)cc1 [Compound 489] | 3000 to 10000 nM
CCC(C)NC[C@@H](NC(=O)CCCCCC(=O)c1ccc(OC)cc1)C(O)c1ccc2c(c1)OCCO2 (stereo partly drawn) [Compound 461] | 100 to 1000 nM
O=C(CCCCC1CCOCC1)N[C@H](CN1CCCC1)[C@H](O)c1ccc2c(c1)OCCO2 [Compound 581] | 100 to 1000 nM
COC[C@H]1CCCN1C[C@@H](NC(=O)CCCCCC(=O)c1ccc(OC)cc1)[C@H](O)c1ccc2c(c1)OCCO2 [Compound 539] | 3000 to 10000 nM
COc1ccc(C(=O)CCCC(=O)N[C@H](CN2CCCC2)[C@H](O)c2ccc(Cl)s2)cc1 [Compound 359] | 100 to 1000 nM
O=C(N[C@H](CN1CCCC1)[C@H](O)c1ccc2c(c1)OCCO2)C(CCc1ccc(F)cc1)C(F)(F)F (stereo partly drawn) [Compound 615] | 100 to 1000 nM
Cc1noc(CCCCC(=O)NC(CN2CCCC2)C(O)c2ccc3c(c2)OCCO3)n1 (stereo not drawn) [Compound 652] | 3000 to 10000 nM
CCCCCCCC(=O)N[C@H](CN1CC2CC2C1)[C@H](O)c1ccc2c(c1)OCCO2 (stereo partly drawn) [Compound 517] | 100 to 1000 nM
CCCCCCCC(=O)N[C@H](CN1CCC1)[C@H](O)c1ccc2c(c1)OCCO2 [Compound 594] | 1000 to 3000 nM
COc1ccc(C(=O)CCCCCC(=O)N[C@H](CN2C3CCC2CC3)[C@H](O)c2ccc(OC(C)C)cc2)cc1 [Compound 377] | ≤ 100 nM
COc1ccc(C(=O)CCCCCC(=O)N[C@H](CN2C(C)CCCC2C)[C@H](O)c2ccc3c(c2)OCCO3)cc1 (stereo partly drawn) [Compound 602] | 3000 to 10000 nM
CCCCCCCC(=O)N[C@H](CN1CCCC1)[C@H](O)c1ccc(C(F)(F)F)cc1 [Compound 488] | 1000 to 3000 nM
O=C(CCC12CC3CC(CC(C3)C1)C2)N[C@H](CN1CCCC1)[C@H](O)c1ccc2c(c1)OCCO2 [Compound 637] | 100 to 1000 nM
COC[C@@H]1CCCN1C[C@@H](NC(=O)CCCCCC(=O)c1ccc(OC)cc1)[C@@H](O)c1ccc2c(c1)OCCO2 [Compound 533] | 100 to 1000 nM
COc1ccc(C(=O)CCCCCC(=O)N[C@H](CN2CCCC2)[C@H](O)c2ccc3c(c2)OC(F)(F)C(F)(F)O3)cc1 [Compound 401] | 100 to 1000 nM
COCCc1ccc([C@@H](O)[C@@H](CN2CCCC2)NC(=O)CCCCC(=O)c2ccc(OC)cc2)cc1 [Compound 357] | 100 to 1000 nM
CCCCCCOc1ccc([C@@H](O)[C@@H](CN2CC[C@H](O)C2)NC(=O)CCCCCC(=O)c2ccc(OC)cc2)cc1 [Compound 372] | ≤ 100 nM
O=C(CCCCCC(=O)c1ccc(F)cc1)N[C@H](CN1C2CCC1CC2)[C@H](O)c1ccc2c(c1)OCCO2 [Compound 475] | ≤ 100 nM
